The kinase profiling compilation of Christmann-Franck et al. (2016)

Columns and labels:
Test in all cases: KINOMEscan competition binding
Settings in all cases: compound 10.0 µM
EPHB1 (human) = EPHB1 (human) (UniProt P54762)
PRKCH (human) = PRKCH (human) (UniProt P24723)
BRSK2 (human) = BRSK2 (human) (UniProt Q8IWQ3)
CSNK1G3 (human) = CSNK1G3 (human) (UniProt Q9Y6M4)
PDGFRB (human) = PDGFRB (human) (UniProt P09619)
PTK2 (human) = PTK2 (human) (UniProt Q05397)
CDK14 (human) = CDK14 (human) (UniProt O94921)
DCLK3 (human) = DCLK3 (human) (UniProt Q9C098)
ICK (human) = ICK (human) (UniProt Q9UPZ9)
CDKL2 (human) = CDKL2 (human) (UniProt Q92772)
MAP3K5 (human) = MAP3K5 (human) (UniProt Q99683)
CAMK2D (human) = CAMK2D (human) (UniProt Q13557)
MUSK (human) = MUSK (human) (UniProt O15146)
MAPK15 (human) = MAPK15 (human) (UniProt Q8TD08)
STK39 (human) = STK39 (human) (UniProt Q9UEW8)
[1] = system: EIF2AK4 KD2 (human), Q9P2K8 [S808G]
TNIK (human) = TNIK (human) (UniProt Q9UKE5)
CHEK1 (human) = CHEK1 (human) (UniProt O14757)
ACVR2A (human) = ACVR2A (human) (UniProt P27037)
STK24 (human) = STK24 (human) (UniProt Q9Y6E0)
CAMKK1 (human) = CAMKK1 (human) (UniProt Q8N5S9)
DCLK2 (human) = DCLK2 (human) (UniProt Q8N568)
STK16 (human) = STK16 (human) (UniProt O75716)
YSK4 (human) = YSK4 (human) (UniProt Q56UN5)
MTOR (human) = MTOR (human) (UniProt P42345)
RPS6KB1 (human) = RPS6KB1 (human) (UniProt P23443)
PTK6 (human) = PTK6 (human) (UniProt Q13882)
PRKAA1 (human) = PRKAA1 (human) (UniProt Q13131)
STK33 (human) = STK33 (human) (UniProt Q9BYT3)
PDGFRA (human) = PDGFRA (human) (UniProt P16234)
CRK2 (P.falciparum) = CRK2 (P.falciparum) (UniProt P61075)
PIK3C2B (human) = PIK3C2B (human) (UniProt O00750)
PRKACA (human) = PRKACA (human) (UniProt P17612)
[2] = system: KIT (human), P10721 [A829P]
HIPK2 (human) = HIPK2 (human) (UniProt Q9H2X6)
SGK3 (human) = SGK3 (human) (UniProt Q96BR1)
MAP3K2 (human) = MAP3K2 (human) (UniProt Q9Y2U5)
MAP2K4 (human) = MAP2K4 (human) (UniProt P45985)
NEK2 (human) = NEK2 (human) (UniProt P51955)
CDK18 (human) = CDK18 (human) (UniProt Q07002)
PRKD2 (human) = PRKD2 (human) (UniProt Q9BZL6)
RPS6KA2 KD1 (human) = RPS6KA2 KD1 (human) (UniProt Q15349)

Chain of PTK2 (human) (Q05397 whole entry, looked up): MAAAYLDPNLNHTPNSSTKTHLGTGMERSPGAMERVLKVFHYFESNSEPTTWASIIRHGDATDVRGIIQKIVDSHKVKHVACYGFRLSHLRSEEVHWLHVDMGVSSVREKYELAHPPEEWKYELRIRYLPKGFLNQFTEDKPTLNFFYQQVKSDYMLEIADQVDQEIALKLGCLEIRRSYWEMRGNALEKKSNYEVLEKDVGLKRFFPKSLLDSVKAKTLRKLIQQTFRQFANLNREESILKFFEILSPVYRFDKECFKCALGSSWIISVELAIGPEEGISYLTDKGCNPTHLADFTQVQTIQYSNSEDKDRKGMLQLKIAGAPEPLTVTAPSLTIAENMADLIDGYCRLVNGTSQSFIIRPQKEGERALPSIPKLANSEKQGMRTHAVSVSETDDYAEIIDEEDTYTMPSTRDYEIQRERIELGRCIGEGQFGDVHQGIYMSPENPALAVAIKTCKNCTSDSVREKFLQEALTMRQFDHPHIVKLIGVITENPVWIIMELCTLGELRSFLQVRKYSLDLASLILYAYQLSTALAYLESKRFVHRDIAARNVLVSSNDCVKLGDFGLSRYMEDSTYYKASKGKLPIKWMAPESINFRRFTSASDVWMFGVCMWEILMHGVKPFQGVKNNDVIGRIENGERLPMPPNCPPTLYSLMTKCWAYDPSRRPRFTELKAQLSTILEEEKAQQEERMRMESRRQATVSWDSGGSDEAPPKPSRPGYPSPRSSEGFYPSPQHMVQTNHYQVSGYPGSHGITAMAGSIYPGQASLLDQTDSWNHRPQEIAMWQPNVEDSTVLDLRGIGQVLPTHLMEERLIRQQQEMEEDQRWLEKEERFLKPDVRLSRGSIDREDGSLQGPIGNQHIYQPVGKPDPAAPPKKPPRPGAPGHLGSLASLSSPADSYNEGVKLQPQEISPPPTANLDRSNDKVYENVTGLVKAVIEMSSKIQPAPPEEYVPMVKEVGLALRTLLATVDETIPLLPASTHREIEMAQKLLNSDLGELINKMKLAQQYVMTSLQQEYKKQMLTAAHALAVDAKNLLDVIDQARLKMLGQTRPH
Chain of PRKCH (human) (P24723 whole entry, looked up): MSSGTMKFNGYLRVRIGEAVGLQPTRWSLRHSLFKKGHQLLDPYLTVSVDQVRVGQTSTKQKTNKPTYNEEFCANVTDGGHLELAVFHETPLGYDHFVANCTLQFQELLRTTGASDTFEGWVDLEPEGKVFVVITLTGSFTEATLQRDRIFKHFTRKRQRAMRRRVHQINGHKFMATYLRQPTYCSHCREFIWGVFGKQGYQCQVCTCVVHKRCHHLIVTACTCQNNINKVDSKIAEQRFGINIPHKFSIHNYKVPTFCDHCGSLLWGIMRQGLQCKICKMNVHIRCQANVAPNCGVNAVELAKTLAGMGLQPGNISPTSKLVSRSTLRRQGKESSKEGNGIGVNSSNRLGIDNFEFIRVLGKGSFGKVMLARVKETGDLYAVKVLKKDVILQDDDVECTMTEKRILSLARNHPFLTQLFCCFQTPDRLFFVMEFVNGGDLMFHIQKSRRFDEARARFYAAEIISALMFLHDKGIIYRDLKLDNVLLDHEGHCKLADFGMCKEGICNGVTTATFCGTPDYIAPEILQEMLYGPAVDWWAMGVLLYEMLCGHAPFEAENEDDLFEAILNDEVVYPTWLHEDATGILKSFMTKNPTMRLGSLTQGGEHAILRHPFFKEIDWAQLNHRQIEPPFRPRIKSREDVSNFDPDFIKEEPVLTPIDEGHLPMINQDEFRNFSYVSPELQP
Chain of TNIK (human) (Q9UKE5 whole entry, looked up): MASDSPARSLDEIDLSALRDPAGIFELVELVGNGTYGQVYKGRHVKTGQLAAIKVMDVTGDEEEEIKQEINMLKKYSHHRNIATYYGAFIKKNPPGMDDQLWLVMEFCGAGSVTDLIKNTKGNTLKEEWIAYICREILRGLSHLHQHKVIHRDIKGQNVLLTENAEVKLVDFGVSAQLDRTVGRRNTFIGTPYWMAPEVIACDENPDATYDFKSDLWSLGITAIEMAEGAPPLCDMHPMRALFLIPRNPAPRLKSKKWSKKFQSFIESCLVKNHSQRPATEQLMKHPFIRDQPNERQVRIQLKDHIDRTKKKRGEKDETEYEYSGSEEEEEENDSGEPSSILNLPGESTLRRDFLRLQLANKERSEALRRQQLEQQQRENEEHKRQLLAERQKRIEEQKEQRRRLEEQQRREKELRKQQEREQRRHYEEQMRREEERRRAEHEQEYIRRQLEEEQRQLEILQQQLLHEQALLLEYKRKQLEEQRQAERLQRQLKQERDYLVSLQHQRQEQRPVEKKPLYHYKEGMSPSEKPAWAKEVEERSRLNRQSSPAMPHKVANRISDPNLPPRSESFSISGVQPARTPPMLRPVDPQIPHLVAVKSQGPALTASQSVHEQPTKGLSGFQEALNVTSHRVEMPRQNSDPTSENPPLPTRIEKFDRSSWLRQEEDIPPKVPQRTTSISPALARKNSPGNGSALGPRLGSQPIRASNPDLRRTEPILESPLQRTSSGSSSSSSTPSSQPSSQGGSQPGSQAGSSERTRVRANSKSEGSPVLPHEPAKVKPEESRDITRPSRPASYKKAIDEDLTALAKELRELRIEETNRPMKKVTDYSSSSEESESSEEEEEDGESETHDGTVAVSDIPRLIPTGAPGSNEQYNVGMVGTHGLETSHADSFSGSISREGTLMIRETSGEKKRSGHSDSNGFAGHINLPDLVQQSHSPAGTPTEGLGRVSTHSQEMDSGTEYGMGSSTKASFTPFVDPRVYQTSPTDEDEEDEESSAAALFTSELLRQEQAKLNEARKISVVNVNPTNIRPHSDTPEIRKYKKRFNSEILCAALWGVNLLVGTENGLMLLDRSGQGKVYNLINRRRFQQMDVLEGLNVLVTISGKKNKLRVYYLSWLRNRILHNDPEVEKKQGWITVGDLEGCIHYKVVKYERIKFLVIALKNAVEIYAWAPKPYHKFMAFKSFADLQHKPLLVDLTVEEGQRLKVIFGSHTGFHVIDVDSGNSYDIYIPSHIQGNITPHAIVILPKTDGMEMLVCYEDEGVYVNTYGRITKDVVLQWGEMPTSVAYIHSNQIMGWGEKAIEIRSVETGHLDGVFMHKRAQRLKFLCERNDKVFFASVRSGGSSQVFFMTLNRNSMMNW
Chain of STK16 (human) (O75716 whole entry, looked up): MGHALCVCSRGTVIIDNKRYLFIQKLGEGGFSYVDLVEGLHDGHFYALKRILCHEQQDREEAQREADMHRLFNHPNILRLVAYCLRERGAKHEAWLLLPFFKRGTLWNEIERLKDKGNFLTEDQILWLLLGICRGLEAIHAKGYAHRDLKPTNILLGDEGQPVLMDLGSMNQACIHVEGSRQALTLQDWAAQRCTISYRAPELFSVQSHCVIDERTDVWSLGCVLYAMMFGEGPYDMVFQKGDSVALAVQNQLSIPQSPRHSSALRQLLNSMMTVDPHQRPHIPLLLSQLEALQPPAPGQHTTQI
Chain of PRKD2 (human) (Q9BZL6 whole entry, looked up): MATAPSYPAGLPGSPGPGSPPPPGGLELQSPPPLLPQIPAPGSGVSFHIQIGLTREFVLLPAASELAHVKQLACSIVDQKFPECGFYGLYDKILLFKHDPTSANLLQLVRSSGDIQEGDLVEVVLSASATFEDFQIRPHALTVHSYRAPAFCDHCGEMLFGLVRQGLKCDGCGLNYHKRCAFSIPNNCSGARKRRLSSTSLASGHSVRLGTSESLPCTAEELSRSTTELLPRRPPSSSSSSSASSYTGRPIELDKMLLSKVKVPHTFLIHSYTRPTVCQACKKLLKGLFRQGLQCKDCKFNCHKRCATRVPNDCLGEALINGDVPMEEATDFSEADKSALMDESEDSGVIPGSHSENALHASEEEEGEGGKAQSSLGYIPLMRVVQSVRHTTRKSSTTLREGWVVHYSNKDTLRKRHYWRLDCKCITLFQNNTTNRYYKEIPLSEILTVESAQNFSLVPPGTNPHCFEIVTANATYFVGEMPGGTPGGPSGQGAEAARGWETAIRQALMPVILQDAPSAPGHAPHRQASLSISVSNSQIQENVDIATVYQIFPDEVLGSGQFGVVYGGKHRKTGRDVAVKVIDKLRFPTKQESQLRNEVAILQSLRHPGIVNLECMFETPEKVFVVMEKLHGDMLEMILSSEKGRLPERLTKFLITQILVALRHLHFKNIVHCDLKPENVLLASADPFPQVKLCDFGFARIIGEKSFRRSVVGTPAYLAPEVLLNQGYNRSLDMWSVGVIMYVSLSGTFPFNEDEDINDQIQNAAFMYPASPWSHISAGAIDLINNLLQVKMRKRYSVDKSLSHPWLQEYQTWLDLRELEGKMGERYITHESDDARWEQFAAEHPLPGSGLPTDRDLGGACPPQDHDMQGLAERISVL
Chain of CDK14 (human) (O94921 whole entry, looked up): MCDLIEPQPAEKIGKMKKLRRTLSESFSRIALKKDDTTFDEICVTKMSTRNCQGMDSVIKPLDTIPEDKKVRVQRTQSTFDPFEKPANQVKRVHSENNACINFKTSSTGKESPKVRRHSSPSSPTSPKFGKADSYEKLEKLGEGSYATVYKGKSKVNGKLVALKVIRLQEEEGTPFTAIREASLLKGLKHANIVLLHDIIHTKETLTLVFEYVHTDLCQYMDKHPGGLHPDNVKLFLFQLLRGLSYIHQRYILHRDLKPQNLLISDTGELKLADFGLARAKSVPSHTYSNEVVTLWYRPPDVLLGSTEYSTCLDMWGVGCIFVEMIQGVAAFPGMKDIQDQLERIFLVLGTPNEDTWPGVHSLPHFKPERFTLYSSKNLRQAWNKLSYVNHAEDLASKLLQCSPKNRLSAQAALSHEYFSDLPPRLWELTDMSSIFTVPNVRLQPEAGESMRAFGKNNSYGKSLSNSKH
Chain of CRK2 (P.falciparum) (P61075 whole entry, looked up): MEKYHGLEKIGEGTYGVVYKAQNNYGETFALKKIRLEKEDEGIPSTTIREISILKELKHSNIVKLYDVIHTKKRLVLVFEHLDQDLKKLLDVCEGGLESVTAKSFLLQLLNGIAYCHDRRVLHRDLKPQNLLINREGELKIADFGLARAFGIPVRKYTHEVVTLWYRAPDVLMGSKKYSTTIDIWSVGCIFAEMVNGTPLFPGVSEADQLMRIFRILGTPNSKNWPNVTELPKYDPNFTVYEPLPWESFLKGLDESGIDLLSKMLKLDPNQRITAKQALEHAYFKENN

Question: With `Cc1cc([C@@H](C)Nc2ccccc2C(=O)O)c2nc(N3CCOCC3)cc(=O)n2c1` as the compound, how does the kinase still bound, per cent of control (EPHB1 (human)) read?
Answer: 99%

Question: What about the kinase still bound, per cent of control (PRKCH (human)) of the same compound?
Answer: 95%

Question: And the kinase still bound, per cent of control (BRSK2 (human))?
Answer: 94%

Question: And the kinase still bound, per cent of control (CSNK1G3 (human))?
Answer: 95%

Question: What about the kinase still bound, per cent of control (PDGFRB (human)) of the same compound?
Answer: 58%

Question: What about the kinase still bound, per cent of control (PTK2 (human)) of the same compound?
Answer: 80%

Question: What about the kinase still bound, per cent of control (CDK14 (human)) of the same compound?
Answer: 100%

Question: And the kinase still bound, per cent of control (DCLK3 (human))?
Answer: 100%

Question: What about the kinase still bound, per cent of control (ICK (human)) of the same compound?
Answer: 100%

Question: And the kinase still bound, per cent of control (CDKL2 (human))?
Answer: 100%

Question: What about the kinase still bound, per cent of control (MAP3K5 (human)) of the same compound?
Answer: 100%

Question: And the kinase still bound, per cent of control (CAMK2D (human))?
Answer: 100%

Question: And the kinase still bound, per cent of control (MUSK (human))?
Answer: 100%

Question: And the kinase still bound, per cent of control (MAPK15 (human))?
Answer: 100%

Question: And the kinase still bound, per cent of control (STK39 (human))?
Answer: 58%

Question: What about the kinase still bound, per cent of control [1] of the same compound?
Answer: 78%

Question: And the kinase still bound, per cent of control (TNIK (human))?
Answer: 97%

Question: And the kinase still bound, per cent of control (CHEK1 (human))?
Answer: 64%

Question: What about the kinase still bound, per cent of control (ACVR2A (human)) of the same compound?
Answer: 95%

Question: And the kinase still bound, per cent of control (STK24 (human))?
Answer: 85%

Question: And the kinase still bound, per cent of control (CAMKK1 (human))?
Answer: 91%

Question: And the kinase still bound, per cent of control (DCLK2 (human))?
Answer: 100%

Question: What about the kinase still bound, per cent of control (STK16 (human)) of the same compound?
Answer: 99%

Question: What about the kinase still bound, per cent of control (YSK4 (human)) of the same compound?
Answer: 100%

Question: What about the kinase still bound, per cent of control (MTOR (human)) of the same compound?
Answer: 18%

Question: What about the kinase still bound, per cent of control (RPS6KB1 (human)) of the same compound?
Answer: 100%

Question: And the kinase still bound, per cent of control (PTK6 (human))?
Answer: 15%

Question: And the kinase still bound, per cent of control (PRKAA1 (human))?
Answer: 62%

Question: What about the kinase still bound, per cent of control (STK33 (human)) of the same compound?
Answer: 100%

Question: What about the kinase still bound, per cent of control (PDGFRA (human)) of the same compound?
Answer: 100%

Question: And the kinase still bound, per cent of control (CRK2 (P.falciparum))?
Answer: 92%

Question: And the kinase still bound, per cent of control (PIK3C2B (human))?
Answer: 1%

Question: What about the kinase still bound, per cent of control (PRKACA (human)) of the same compound?
Answer: 100%

Question: And the kinase still bound, per cent of control [2]?
Answer: 87%

Question: And the kinase still bound, per cent of control (HIPK2 (human))?
Answer: 77%

Question: And the kinase still bound, per cent of control (SGK3 (human))?
Answer: 100%

Question: And the kinase still bound, per cent of control (MAP3K2 (human))?
Answer: 88%

Question: What about the kinase still bound, per cent of control (MAP2K4 (human)) of the same compound?
Answer: 70%

Question: And the kinase still bound, per cent of control (NEK2 (human))?
Answer: 100%

Question: What about the kinase still bound, per cent of control (CDK18 (human)) of the same compound?
Answer: 83%

Question: And the kinase still bound, per cent of control (PRKD2 (human))?
Answer: 97%

Question: What about the kinase still bound, per cent of control (RPS6KA2 KD1 (human)) of the same compound?
Answer: 100%
